Reference: patent publication EP4603105A1, “PHARMACEUTICAL COMPOSITION CONTAINING CYCLIC COMPOUND HAVING SELECTIVE KRAS INHIBITORY EFFECT AGAINST HRAS AND NRAS” (CHUGAI SEIYAKU KABUSHIKI KAISHA, priority 2022, dated 2024)
Read-outs that look alike come from different tables or passages of the source. One block for each compound: values may come before it.

Tests used:
[1] = system: human lung cancer strain NCI-H441; experiment: NCI-H441 cell proliferation inhibitory activity (CellTiter-Glo, 4 days); assay type: cell-based; settings: read-out: NCl-H441 IC50
Description: A test compound was dispensed into a U-bottom 384-well plate as 40 nL serially diluted dimethyl sulfoxide solutions using a liquid handler Echo (LABCYTE). […] This cell suspension was dispensed in an amount of 40 µL per well into a plate containing the test compound, and cultured at 37°C in a 5% carbon dioxide gas incubator. Four days later, 20 µL of CellTiter-Glo (registered trademark) (Promega) was added to each well and […] was measured. […]

[2] = target: GDP-bound KRAS wild-type protein (Homo sapiens, UniProt P01116); experiment: Binding to KRAS by surface plasmon resonance (SPR), dissociation constant KD; settings: 1:1 binding model
Sequence of GDP-bound KRAS wild-type protein (P01116 1-188 isoform P01116-2): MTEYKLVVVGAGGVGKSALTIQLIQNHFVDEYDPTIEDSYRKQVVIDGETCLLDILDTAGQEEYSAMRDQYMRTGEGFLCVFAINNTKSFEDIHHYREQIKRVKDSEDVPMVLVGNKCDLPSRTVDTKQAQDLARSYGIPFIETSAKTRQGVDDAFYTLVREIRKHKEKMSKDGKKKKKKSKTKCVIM
In short: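 Compound binding is evaluated by SPR single-cycle kinetics, with concentrations added intermittently from low to high for 75 s each. Target surfaces carry GDP-loaded biotinylated Avi-RAS at about 100–300 RU, regenerated after each cycle; temperature 30°C. A 1:1 binding model gives KD.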

[3] = target: GDP-bound NRAS wild-type protein (Homo sapiens, UniProt P01111); experiment: Binding to NRAS by surface plasmon resonance (SPR), KD and KD ratio to KRAS
Sequence of GDP-bound NRAS wild-type protein (P01111 whole entry): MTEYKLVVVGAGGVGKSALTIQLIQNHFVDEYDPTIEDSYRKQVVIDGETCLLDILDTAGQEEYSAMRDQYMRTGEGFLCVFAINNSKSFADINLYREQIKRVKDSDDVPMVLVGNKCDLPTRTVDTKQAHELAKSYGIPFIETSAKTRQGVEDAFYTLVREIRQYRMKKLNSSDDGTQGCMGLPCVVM
In short: (§1)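 Captured GDP-RAS (~100–300 RU) was exposed to increasing compound concentrations, 75 s per step, in running buffer with 10 µM GDP, 10 mM MgCl2 and 4% DMSO at pH 7.4.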

HRAS wild-type protein = HRAS wild-type protein (Homo sapiens, UniProt P01112); experiment: Binding to HRAS by surface plasmon resonance (SPR), KD and KD ratio to KRAS
Sequence of HRAS wild-type protein (P01112 whole entry): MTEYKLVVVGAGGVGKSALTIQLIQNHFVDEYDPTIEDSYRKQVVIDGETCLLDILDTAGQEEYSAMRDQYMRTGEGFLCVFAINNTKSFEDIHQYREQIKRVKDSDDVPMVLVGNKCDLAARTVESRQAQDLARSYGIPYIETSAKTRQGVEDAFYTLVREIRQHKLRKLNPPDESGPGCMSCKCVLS
In short: as §1

[4] = system: human lung cancer strain NCI-H441; assay type: cell-based
In short: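 Step one: dispense the test compound in serial DMSO dilutions. Step three: add the reagent and measure […].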

[5] = 50% proliferation inhibitory concentration, four days

Structure (SMILES): CCO[C@@H]1C[C@H]2C(=O)NC3(CC(C)(C)C3)C(=O)N(C)[C@@H](C3CCCC3)C(=O)N(C)[C@H](C(=O)N(C)CC)CC(=O)N(C)[C@@H]([C@H](C)OC)C(=O)N[C@@H]([C@@H](C)CC)C(=O)N(C)CC(=O)N(C)[C@H]3C/C=C\CCN(C3=O)[C@@H](Cc3ccc(C)cc3)C(=O)N(C)CC(=O)N[C@@H](CCc3ccc(C(F)(F)F)c(OC)c3)C(=O)N2C1 [PP3225]
IC50 ([1]; NCI-H441 cells, 4 days): 12.1 nM

Structure (SMILES): CC[C@H](C)[C@@H]1NC(=O)[C@H](CC)N(C)C(=O)C[C@@H](C(=O)N(C)C)N(C)C(=O)[C@H](C2CCCC2)N(C)C(=O)C2(CCC2)NC(=O)[C@@H]2C[C@@H](C(F)(F)F)CN2C(=O)[C@H](CCc2cc(F)c(C(F)(F)F)c(F)c2)NC(=O)CN(C)C(=O)[C@H](CC2CCC(F)(F)CC2)N2CC/C=C\C[C@@H](C2=O)N(C)C(=O)CN(C)C1=O [PP1451]
IC50 [1, 5]: 61.1 nM

Structure (SMILES): CCO[C@@H]1C[C@H]2C(=O)NC3(COC3)C(=O)N(C)[C@@H](C3CCCC3)C(=O)N(C)[C@H](C(=O)N(C)C)CC(=O)N(C)[C@@H](CC)C(=O)N[C@@H]([C@@H](C)CC)C(=O)N(C)CC(=O)N(C)[C@H]3C/C=C\CCN(C3=O)[C@@H](Cc3ccc(C(F)(F)F)cc3)C(=O)N(C)CC(=O)N[C@@H](CCc3cc(F)c(C(F)(F)F)c(F)c3)C(=O)N2C1 [PP1278]
IC50 [1, 5]: 45.7 nM

Structure (SMILES): CCO[C@@H]1C[C@H]2C(=O)NC3(CC(C)(C)C3)C(=O)N(C)[C@@H](C3CCCC3)C(=O)N(C)[C@H](C(=O)N(C)C)CC(=O)N(C)[C@@H]([C@H](C)OC)C(=O)N[C@@H]([C@@H](C)CC)C(=O)N3CCC[C@H]3C(=O)N(C)[C@H]3C/C=C\CCN(C3=O)[C@@H](Cc3ccc(C(F)(F)F)cc3)C(=O)N(C)CC(=O)N[C@@H](CCc3cc(F)c(C(F)(F)F)c(F)c3)C(=O)N2C1 [PP3181]
Kd [2]: 0.96 nM | NRAS /KRAS ([3]; ratio of KD for GDP-bound NRAS wild-type protein to KD for KRAS): A (a compound having 10 or more and less than 20 is denoted as A) | HRAS /KRAS (HRAS wild-type protein; ratio of KD for HRAS wild-type protein to KD for KRAS): B (a compound having 3 or more and less than 10 is denoted as B) | IC50 [4]: 51 nM

Structure (SMILES): CC[C@H](C)[C@@H]1NC(=O)[C@H](CC(C)C)N(C)C(=O)C[C@@H](C(=O)N2CCOCC2)N(C)C(=O)[C@H](C2CCCC2)N(C)C(=O)C2(CCCC2)NC(=O)[C@@H]2CCCN2C(=O)[C@H](CCc2ccc(C(F)(F)F)c(Cl)c2)NC(=O)CN(C)C(=O)[C@H](Cc2ccccc2)N2CCCCC[C@@H](C2=O)N(C)C(=O)CN(C)C1=O [PP0611]
Kd ([2]; Single Cycle Kinetics): 0.73 nM | NRAS /KRAS ([3]; ratio of the KD value with respect to GDP-bound NRAS wild-type protein to the KD value with respect to KRAS): B (a compound having 3 or more and less than 10 is denoted as B) | HRAS /KRAS (HRAS wild-type protein; ratio of the KD value with respect to HRAS wild-type protein to the KD value with respect to KRAS): B (a compound having 3 or more and less than 10 is denoted as B) | IC50 [4]: 88.9 nM

The next lines start with the values.

IC50 [1, 5]: 11 nM
Structure (SMILES): CCC[C@H]1C(=O)N[C@@H]([C@@H](C)CC)C(=O)N(C)CC(=O)N(C)[C@H]2C/C=C\CCN(C2=O)[C@@H](Cc2ccc(C(F)(F)F)cc2)C(=O)N(C)CC(=O)N[C@@H](CCc2cc(F)c(C(F)(F)F)c(F)c2)C(=O)N2C[C@H](OCC)C[C@H]2C(=O)NC2(CCC2)C(=O)N(C)[C@@H](C2CCCC2)C(=O)N(C)[C@H](C(=O)N2CCCC2)CC(=O)N1C [PP1299]

IC50 [1, 5]: 4.4 nM
Structure (SMILES): CCO[C@@H]1C[C@H]2C(=O)NC3(CCC3)C(=O)N(C)[C@@H](C3CCCC3)C(=O)N(C)[C@H](C(=O)N3CCCC3)CC(=O)N(C)[C@@H](CC3CCC3)C(=O)N[C@@H]([C@@H](C)CC)C(=O)N(C)CC(=O)N(C)[C@H]3C/C=C\CCN(C3=O)[C@@H](Cc3ccc(C(F)(F)F)cc3)C(=O)N(C)CC(=O)N[C@@H](CCc3cc(F)c(C(F)(F)F)c(F)c3)C(=O)N2C1 [PP1423]

IC50 [1, 5]: 19.4 nM
Structure (SMILES): CCCC[C@H]1C(=O)N[C@@H]([C@@H](C)CC)C(=O)N(C)CC(=O)N(C)[C@H]2C/C=C\CCN(C2=O)[C@@H](Cc2ccc(C(F)(F)F)cc2)C(=O)N(C)CC(=O)N[C@@H](CCc2cc(F)c(C(F)(F)F)c(F)c2)C(=O)N2C[C@H](OCC)C[C@H]2C(=O)NC2(CCC2)C(=O)N(C)[C@@H](C2CCCC2)C(=O)N(C)[C@H](C(=O)N2CCCC2)CC(=O)N1C [PP1396]
